# Results from PubChem BioAssay AID2060513 (Molecular Pharmacology Branch, DTP, NCI, 2025).
# Tested on: 299254-011-R-J1-PDC complex spheroids viability
# Assay: Anticancer human tumor 299254-011-R-J1-PDC patient-derived melanoma cell line growth inhibition [GQUAD]
# Settings: for IC50: curve of first compound; for viability, T/C: stronger effect = lower value
# Outline: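 Viability of tumor cells grown as complex spheroids with endothelial and stromal cells, exposed to drug combinations. Top concentration at or near clinical Cmax (else 10 microM), diluted in half-log increments.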
# [1] = second compound 0.0316 µM, first compound 0.0316 µM
# [2] = second compound 0.0316 µM, first compound 0.1 µM
# [3] = second compound 0.0316 µM, first compound 0.316 µM
# [4] = second compound 0.0316 µM, first compound 1 µM
# [5] = second compound 0.0316 µM, first compound 3.16 µM
# [6] = second compound 0.0316 µM, first compound 10 µM
# [7] = second compound 0.1 µM, first compound 0.0316 µM
# [8] = second compound 0.1 µM, first compound 0.1 µM
# [9] = second compound 0.1 µM, first compound 0.316 µM
# [10] = second compound 0.1 µM, first compound 1 µM
# [11] = second compound 0.1 µM, first compound 3.16 µM
# [12] = second compound 0.1 µM, first compound 10 µM
# [13] = second compound 0.316 µM, first compound 0.0316 µM
# [14] = second compound 0.316 µM, first compound 0.1 µM
# [15] = second compound 0.316 µM, first compound 0.316 µM
# [16] = second compound 0.316 µM, first compound 1 µM
# [17] = second compound 0.316 µM, first compound 3.16 µM
# [18] = second compound 0.316 µM, first compound 10 µM
# [19] = second compound 1 µM, first compound 0.0316 µM
# [20] = second compound 1 µM, first compound 0.1 µM
# [21] = second compound 1 µM, first compound 0.316 µM
# [22] = second compound 1 µM, first compound 1 µM
# [23] = second compound 1 µM, first compound 3.16 µM
# [24] = second compound 1 µM, first compound 10 µM
# [25] = second compound 3.16 µM, first compound 0.0316 µM
# [26] = second compound 3.16 µM, first compound 0.1 µM
# [27] = second compound 3.16 µM, first compound 0.316 µM
# [28] = second compound 3.16 µM, first compound 1 µM
# [29] = second compound 3.16 µM, first compound 3.16 µM
# [30] = second compound 3.16 µM, first compound 10 µM
# [31] = second compound 10 µM, first compound 0.0316 µM
# [32] = second compound 10 µM, first compound 0.1 µM
# [33] = second compound 10 µM, first compound 0.316 µM
# [34] = second compound 10 µM, first compound 1 µM
# [35] = second compound 10 µM, first compound 3.16 µM
# [36] = second compound 10 µM, first compound 10 µM
# 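Also: spheroids exposed to the agents for seven days before readout.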
# 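For viability, T/C in this document: percent viability relative to DMSO vehicle control wells = 100%.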
compound,measurement,setting,value
CC1COCCN1c1cc(C2(S(C)(=N)=O)CC2)nc(-c2ccnc3[nH]ccc23)n1 (stereo unspecified) + Cc1[nH]c2ccc(F)cc2c1-c1nc2c3cccnc3c3ncccc3c2[nH]1,IC50,second compound 0.0316 µM,2.91 µM
same,IC50,second compound 0.1 µM,5.58 µM
same,IC50,second compound 0.316 µM,4.71 µM
same,IC50,second compound 1 µM,4.53 µM
same,IC50,second compound 3.16 µM,3.17 µM
same,IC50,second compound 10 µM,2.46 µM
same,"viability, T/C",[1],105%
same,"viability, T/C",[2],86.6%
same,"viability, T/C",[3],110%
same,"viability, T/C",[4],67.8%
same,"viability, T/C",[5],53.6%
same,"viability, T/C",[6],31.8%
same,"viability, T/C",[7],85%
same,"viability, T/C",[8],95.9%
same,"viability, T/C",[9],100%
same,"viability, T/C",[10],87.4%
same,"viability, T/C",[11],64%
same,"viability, T/C",[12],35.8%
same,"viability, T/C",[13],78.7%
same,"viability, T/C",[14],96.4%
same,"viability, T/C",[15],114%
same,"viability, T/C",[16],87.9%
same,"viability, T/C",[17],64.2%
same,"viability, T/C",[18],24%
same,"viability, T/C",[19],91%
same,"viability, T/C",[20],90.3%
same,"viability, T/C",[21],96.1%
same,"viability, T/C",[22],111%
same,"viability, T/C",[23],59.4%
same,"viability, T/C",[24],29.3%
same,"viability, T/C",[25],108%
same,"viability, T/C",[26],99.2%
same,"viability, T/C",[27],97.7%
same,"viability, T/C",[28],97.1%
same,"viability, T/C",[29],50%
same,"viability, T/C",[30],18%
same,"viability, T/C",[31],127%
same,"viability, T/C",[32],83%
same,"viability, T/C",[33],97.5%
same,"viability, T/C",[34],92%
same,"viability, T/C",[35],38.3%
same,"viability, T/C",[36],14.1%
COc1ccc([C@@H](O)c2cc(-c3ncnc4cc(N5CCOCC5)ccc34)c(F)cc2Cl)nn1 + Cc1[nH]c2ccc(F)cc2c1-c1nc2c3cccnc3c3ncccc3c2[nH]1,IC50,second compound 0.0316 µM,> 10 µM
same,IC50,second compound 0.1 µM,> 10 µM
same,IC50,second compound 0.316 µM,8.51 µM
same,IC50,second compound 1 µM,9.05 µM
same,IC50,second compound 3.16 µM,8.89 µM
same,IC50,second compound 10 µM,7.15 µM
same,"viability, T/C",[1],97.4%
same,"viability, T/C",[2],113%
same,"viability, T/C",[3],108%
same,"viability, T/C",[4],84.6%
same,"viability, T/C",[5],83.8%
same,"viability, T/C",[6],57.7%
same,"viability, T/C",[7],92%
same,"viability, T/C",[8],97.3%
same,"viability, T/C",[9],109%
same,"viability, T/C",[10],86.9%
same,"viability, T/C",[11],77.6%
same,"viability, T/C",[12],51%
same,"viability, T/C",[13],82.2%
same,"viability, T/C",[14],108%
same,"viability, T/C",[15],107%
same,"viability, T/C",[16],83.4%
same,"viability, T/C",[17],111%
same,"viability, T/C",[18],42.1%
same,"viability, T/C",[19],85.3%
same,"viability, T/C",[20],92.5%
same,"viability, T/C",[21],106%
same,"viability, T/C",[22],98.9%
same,"viability, T/C",[23],75.9%
same,"viability, T/C",[24],47.6%
same,"viability, T/C",[25],96.3%
same,"viability, T/C",[26],120%
same,"viability, T/C",[27],87.8%
same,"viability, T/C",[28],95%
same,"viability, T/C",[29],97.1%
same,"viability, T/C",[30],44.6%
same,"viability, T/C",[31],121%
same,"viability, T/C",[32],93.3%
same,"viability, T/C",[33],100%
same,"viability, T/C",[34],93.9%
same,"viability, T/C",[35],82.8%
same,"viability, T/C",[36],36.9%
O=C(c1cc(Cc2n[nH]c(=O)c3ccccc23)ccc1F)N1CCN(C(=O)C2CC2)CC1 + Cc1[nH]c2ccc(F)cc2c1-c1nc2c3cccnc3c3ncccc3c2[nH]1,IC50,second compound 0.0316 µM,> 10 µM
same,IC50,second compound 0.1 µM,> 10 µM
same,IC50,second compound 0.316 µM,> 10 µM
same,IC50,second compound 1 µM,> 10 µM
same,IC50,second compound 3.16 µM,> 10 µM
same,IC50,second compound 10 µM,> 10 µM
same,"viability, T/C",[1],109%
same,"viability, T/C",[2],102%
same,"viability, T/C",[3],102%
same,"viability, T/C",[4],102%
same,"viability, T/C",[5],99%
same,"viability, T/C",[6],91.1%
same,"viability, T/C",[7],95.1%
same,"viability, T/C",[8],86.3%
same,"viability, T/C",[9],97.1%
same,"viability, T/C",[10],110%
same,"viability, T/C",[11],113%
same,"viability, T/C",[12],89.9%
same,"viability, T/C",[13],89.9%
same,"viability, T/C",[14],109%
same,"viability, T/C",[15],90.2%
same,"viability, T/C",[16],95.1%
same,"viability, T/C",[17],103%
same,"viability, T/C",[18],104%
same,"viability, T/C",[19],88.8%
same,"viability, T/C",[20],125%
same,"viability, T/C",[21],127%
same,"viability, T/C",[22],115%
same,"viability, T/C",[23],90.4%
same,"viability, T/C",[24],88.5%
same,"viability, T/C",[25],91.3%
same,"viability, T/C",[26],95.7%
same,"viability, T/C",[27],93.2%
same,"viability, T/C",[28],87.5%
same,"viability, T/C",[29],104%
same,"viability, T/C",[30],85%
same,"viability, T/C",[31],91.6%
same,"viability, T/C",[32],97.2%
same,"viability, T/C",[33],106%
same,"viability, T/C",[34],104%
same,"viability, T/C",[35],92.5%
same,"viability, T/C",[36],93%
